In general, Ki refers to a measure of affinity in units of concentration, obtained from inhibition or displacement.

Activity calls are given as the source filed them. The calls are words filed in the database; no cut-off is given here.

A short description of series [1]: Inhibition of human intestinal carboxylesterase expressed in sf21 cells up to 100 uM.
Series [2] has as its target T1, Liver carboxylesterase 1 (Homo sapiens, UniProt P23141).
T1 sequence (P23141 whole entry): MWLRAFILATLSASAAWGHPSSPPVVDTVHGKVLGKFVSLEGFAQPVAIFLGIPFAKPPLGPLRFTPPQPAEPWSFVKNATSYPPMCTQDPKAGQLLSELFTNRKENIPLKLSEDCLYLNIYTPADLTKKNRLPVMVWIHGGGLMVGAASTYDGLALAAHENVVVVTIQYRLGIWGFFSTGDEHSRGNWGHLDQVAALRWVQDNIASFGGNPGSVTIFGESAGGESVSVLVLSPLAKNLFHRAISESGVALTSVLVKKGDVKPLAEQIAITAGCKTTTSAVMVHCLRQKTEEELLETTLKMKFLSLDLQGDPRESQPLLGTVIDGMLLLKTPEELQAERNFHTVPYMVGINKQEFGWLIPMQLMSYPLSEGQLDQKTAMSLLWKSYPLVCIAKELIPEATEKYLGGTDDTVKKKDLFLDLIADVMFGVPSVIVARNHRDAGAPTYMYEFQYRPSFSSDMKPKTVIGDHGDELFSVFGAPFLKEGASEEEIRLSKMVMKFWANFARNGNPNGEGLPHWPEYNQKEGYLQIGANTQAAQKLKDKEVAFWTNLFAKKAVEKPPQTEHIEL
As to the kind of experiment: Inhibition of human liver CE1 expressed in sf21 cells up to 100 uM.

A short description of series [3]: Inhibition of rabbit liver carboxylesterase expressed in sf21 cells up to 100 uM. The settings on record: Oryctolagus cuniculus.
Series [4] is described as follows: Inhibition of human intestinal carboxylesterase expressed in sf21 cells.
Series [5] has as its target T1, Liver carboxylesterase 1. In words: Inhibition of human liver CE1 expressed in sf21 cells. The class given is cell-based.
The nature of series [6]: Inhibition of rabbit liver carboxylesterase expressed in sf21 cells. It is filed as cell-based, Oryctolagus cuniculus.
In a further series the target is Acetylcholinesterase (Homo sapiens, UniProt P22303).
The target of another series is Cholinesterase (Homo sapiens, UniProt P06276).
Chain of Cholinesterase (P06276 whole entry): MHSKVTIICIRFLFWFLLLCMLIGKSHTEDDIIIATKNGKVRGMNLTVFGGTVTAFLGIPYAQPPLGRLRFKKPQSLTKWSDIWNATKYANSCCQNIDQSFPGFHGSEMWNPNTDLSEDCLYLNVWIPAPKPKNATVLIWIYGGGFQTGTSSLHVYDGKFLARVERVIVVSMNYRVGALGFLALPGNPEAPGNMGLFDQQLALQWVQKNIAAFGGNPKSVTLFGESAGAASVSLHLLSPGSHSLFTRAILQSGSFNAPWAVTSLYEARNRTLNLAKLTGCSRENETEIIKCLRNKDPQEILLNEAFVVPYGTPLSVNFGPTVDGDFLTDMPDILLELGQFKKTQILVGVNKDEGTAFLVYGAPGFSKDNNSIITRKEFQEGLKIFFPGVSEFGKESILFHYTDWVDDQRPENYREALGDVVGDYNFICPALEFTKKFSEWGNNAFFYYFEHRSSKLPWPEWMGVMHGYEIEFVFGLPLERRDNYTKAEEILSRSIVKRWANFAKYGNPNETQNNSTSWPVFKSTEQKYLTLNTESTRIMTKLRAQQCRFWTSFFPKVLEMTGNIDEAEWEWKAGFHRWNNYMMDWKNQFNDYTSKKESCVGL

Chain of Acetylcholinesterase (P22303 whole entry): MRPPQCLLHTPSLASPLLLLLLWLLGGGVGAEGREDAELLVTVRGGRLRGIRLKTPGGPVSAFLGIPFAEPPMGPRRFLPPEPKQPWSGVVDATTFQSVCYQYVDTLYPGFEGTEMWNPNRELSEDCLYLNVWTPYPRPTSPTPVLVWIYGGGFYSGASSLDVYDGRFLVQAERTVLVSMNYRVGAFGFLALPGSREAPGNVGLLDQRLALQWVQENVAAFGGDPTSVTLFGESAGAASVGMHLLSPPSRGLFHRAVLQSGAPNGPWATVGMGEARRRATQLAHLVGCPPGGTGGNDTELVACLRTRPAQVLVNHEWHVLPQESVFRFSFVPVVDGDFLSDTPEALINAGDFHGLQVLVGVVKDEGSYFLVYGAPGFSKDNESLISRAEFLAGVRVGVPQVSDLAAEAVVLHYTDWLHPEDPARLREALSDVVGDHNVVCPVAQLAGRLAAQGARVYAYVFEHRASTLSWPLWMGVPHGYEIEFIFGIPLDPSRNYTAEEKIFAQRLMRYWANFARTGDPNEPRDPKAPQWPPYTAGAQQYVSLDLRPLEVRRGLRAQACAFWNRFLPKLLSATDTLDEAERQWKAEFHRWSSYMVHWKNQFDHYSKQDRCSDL

In the case of `c1ccc2c(c1)CCC2`, the result in series [1] and in series [3] was inactive. In addition, the Activity result at Liver carboxylesterase 1 [2] was “Not Active”.

In the case of `O=C1C(=O)N(CCBr)c2ccccc21`, the Ki in series [4] was 1.58 µM; on Liver carboxylesterase 1 [5], 0.29 µM; in series [6], 5.15 µM; at Acetylcholinesterase, above 100 µM; at Cholinesterase, 28.1 µM.

As to `O=C1CC(=O)c2ccccc21`, the result in series [1] and in series [3] was inactive. Besides, the Activity entry on Liver carboxylesterase 1 [2] was “Not Active”.

On to `c1ccc2c(c1)CCN2` [INDOLINE], for which the result in series [1] and in series [3] was inactive. Also, the Activity result on Liver carboxylesterase 1 [2] is “Not Active”.

As to `NC(=O)CN1C(=O)C(=O)c2ccccc21`, the inhibition constant (Ki) (in series [4]; on Liver carboxylesterase 1 [5]; in series [6]; at Acetylcholinesterase; at Cholinesterase) was above 100 µM throughout.

For `O=C1C(=O)N(CO)c2ccccc21`, the Ki in series [4] was 34.5 µM; on Liver carboxylesterase 1 [5], above 100 µM; in series [6] it was above 100 µM; at Acetylcholinesterase, above 100 µM; on Cholinesterase, above 100 µM.

As to `Cc1ccc(NCN2C(=O)C(=O)c3ccccc32)cc1`, the Ki in series [4] is 1.08 µM; on Liver carboxylesterase 1 [5], 2.65 µM; in series [6] it was 7.4 µM; on Acetylcholinesterase, above 100 µM; on Cholinesterase it was 18.1 µM.

As for `O=C1Nc2ccc(Br)cc2C1=O`, the Ki is 13.3 µM in series [4]; 31.7 µM at Liver carboxylesterase 1 [5]; 1.32 µM in series [6]; above 100 µM on Acetylcholinesterase; above 100 µM at Cholinesterase.

Consider `COc1cccc2c1NC(=O)C2=O`, for which the inhibitory constant (Ki) in series [4] is above 100 µM; on Liver carboxylesterase 1 [5], above 100 µM; in series [6], 16.1 µM; on Acetylcholinesterase it was above 100 µM; at Cholinesterase it was above 100 µM.

For `O=C(O)CN1C(=O)C(=O)c2ccccc21`, the Ki (in series [4]; at Liver carboxylesterase 1 [5]; in series [6]; on Acetylcholinesterase; at Cholinesterase) was above 100 µM each time.

For the molecule `O=C1Nc2ccc([N+](=O)[O-])cc2C1=O` [5-NITROISATIN], the Ki in series [4] is above 100 µM; at Liver carboxylesterase 1 [5], above 100 µM; in series [6], 6.43 µM; on Acetylcholinesterase, above 100 µM; on Cholinesterase, above 100 µM.

On to `O=C1Nc2c(C(=O)O)cccc2C1=O`, for which the inhibitory constant (Ki) (in series [4]; at Liver carboxylesterase 1 [5]; in series [6]; at Acetylcholinesterase; at Cholinesterase) was above 100 µM in each case.

Consider `O=C1Nc2ccccc2/C1=N/O`, for which the outcome in series [1] and in series [3] was inactive. Moreover, the Activity entry on Liver carboxylesterase 1 [2] was “Not Active”.

With `O=C1NC(=O)c2ccccc21` [PHTHALIMIDE], the outcome in series [1] and in series [3] was inactive. Also, the Activity entry at Liver carboxylesterase 1 [2] is given as “Not Active”.

Turning to `O=C1C(=O)N(C(=O)CCl)c2ccccc21`, the Ki (in series [4]; on Liver carboxylesterase 1 [5]; in series [6]; at Acetylcholinesterase; on Cholinesterase) was above 100 µM in each case.

Consider `CCc1ccc2c(c1)NC(=O)C2=O`, for which the Ki in series [4] is above 100 µM; at Liver carboxylesterase 1 [5] it was above 100 µM; in series [6] it was 29.5 µM; at Acetylcholinesterase, above 100 µM; at Cholinesterase, above 100 µM.

On to `O=C1Nc2ccccc2C1=O` [ISATIN], for which the inhibition constant (Ki) (in series [4]; on Liver carboxylesterase 1 [5]; in series [6]; at Acetylcholinesterase; at Cholinesterase) was above 100 µM throughout.

In the case of `COc1cc(NCN2C(=O)C(=O)c3ccccc32)cc(OC)c1OC`, the inhibition constant Ki in series [4] was 2.69 µM; at Liver carboxylesterase 1 [5], 19.5 µM; in series [6], above 100 µM; on Acetylcholinesterase it was above 100 µM; at Cholinesterase, above 100 µM.

For `O=C1c2ccccc2C(=O)N1c1ccccc1` [N-PHENYL-PHTHALIMIDE], the outcome in series [1] and in series [3] was inactive. For the same molecule, on Liver carboxylesterase 1 [2], the Activity entry was “Not Active”.

Turning to `O=C1C(=O)N(CN2CCCCC2)c2ccccc21`, the Ki is 27.4 µM in series [4]; above 100 µM on Liver carboxylesterase 1 [5]; above 100 µM in series [6]; above 100 µM on Acetylcholinesterase; above 100 µM on Cholinesterase.

Regarding `c1ccc2[nH]ccc2c1` [INDOLE], the result in series [1] and in series [3] was inactive. Moreover, the Activity entry on Liver carboxylesterase 1 [2] is listed as “Not Active”.

For `C1=Cc2ccccc2C1` [INDENE], the outcome in series [1] and in series [3] was inactive. Also, the Activity entry at Liver carboxylesterase 1 [2] was “Not Active”.

Regarding `N/N=C1\C(=O)Nc2ccccc21`, the result in series [1] and in series [3] was inactive. Further, on Liver carboxylesterase 1 [2], the Activity result is reported as “Not Active”.

Regarding `O=C1C(=O)N(CN2CCOCC2)c2ccccc21`, the Ki in series [4] is 22.5 µM; at Liver carboxylesterase 1 [5], above 100 µM; in series [6] it was above 100 µM; at Acetylcholinesterase, above 100 µM; on Cholinesterase it was above 100 µM.

For the molecule `O=C1Nc2cc(Cl)c(Cl)cc2C1=O`, the inhibition constant (Ki) is 16.6 µM in series [4]; 21 µM at Liver carboxylesterase 1 [5]; 0.49 µM in series [6]; above 100 µM at Acetylcholinesterase; above 100 µM at Cholinesterase.

As to `Cc1cc(C)c2c(c1)C(=O)C(=O)N2`, the Ki was 84.6 µM in series [4]; above 100 µM at Liver carboxylesterase 1 [5]; 30.5 µM in series [6]; above 100 µM on Acetylcholinesterase; above 100 µM on Cholinesterase.

These data come from ChEMBL document CHEMBL1144473, “Selective inhibition of carboxylesterases by isatins, indole-2,3-diones” (J Med Chem, 2007).
